The record followed here is patent US6436963B1 (priority 1998, dated 2002).

One assay has as its system Phytophthora infestans. It counts as in vivo. Conditions: tomatoes (cultivar Rutgers), sprayed to run off at 100 ppm, inoculated after 24 hours.
Another assay has as its system Erysiphe graminis. As to the kind of experiment: Powdery Mildew of Wheat (ERYSGT), protectant spray test on wheat seedlings. It counts as in vivo. Conditions: wheat (cultivar Monon), sprayed to run off at 100 ppm, inoculated after 24 hours.
The next assay concerns Septoria tritici. Conditions: wheat (cultivar Monon), sprayed to run off at 100 ppm, inoculated after 24 hours.
Another assay concerns Puccinia recondita. Kind of assay: Brown Rust (PUCCRT), protectant spray test on wheat seedlings. The format is in vivo. The conditions noted are these: wheat (cultivar Monon), sprayed to run off at 100 ppm, inoculated after 24 hours.
For the next assay, the system named is Leptosphaeria nodorum. Kind of assay: Glume Blotch of Wheat (LEPTNO), protectant spray test on wheat seedlings. The format is in vivo. Conditions: wheat (cultivar Monon), sprayed to run off at 100 ppm, inoculated after 24 hours.

On to `CNC(=O)C(=NOC)c1ccccc1COc1ncc(C(O)c2ccccc2)cc1C` (racemic) [Example 13], for which the “PHYTIN control of plant disease” value in the assay with Phytophthora infestans is recorded as “++ (++ = 75-100% control of plant disease)”. The “ERYSGT control of plant disease” value with Erysiphe graminis was “++ (++ = 75-100% control of plant disease)”. The “SEPTTR control of plant disease” value with Septoria tritici is recorded as “++ (++ = 75-100% control of plant disease)”. Further, the “PUCCRT control of plant disease” value in the assay on Puccinia recondita is “++ (++ = 75-100% control of plant disease)”.
Turning to `CNC(=O)C(=NOC)c1ccccc1COc1ncc(C(O)c2ccc(F)cc2)cc1C` (racemic) [Example 14], the “PHYTIN control of plant disease” value with Phytophthora infestans is recorded as “++ (++ = 75-100% control of plant disease)”. Further, the “ERYSGT control of plant disease” value in the assay with Erysiphe graminis is recorded as “++ (++ = 75-100% control of plant disease)”. The “SEPTTR control of plant disease” value in the assay on Septoria tritici is on record as “++ (++ = 75-100% control of plant disease)”. In addition, the “PUCCRT control of plant disease” value with Puccinia recondita is reported as “++ (++ = 75-100% control of plant disease)”.
`CNC(=O)C(=NOC)c1ccccc1COc1ncc(C(O)c2ccc(Cl)cc2)cc1C` (racemic) [Example 15]: in the assay on Phytophthora infestans, the “PHYTIN control of plant disease” value is listed as “++ (++ = 75-100% control of plant disease)”. Moreover, in the assay with Erysiphe graminis, the “ERYSGT control of plant disease” value is recorded as “++ (++ = 75-100% control of plant disease)”. In the assay on Septoria tritici, the “SEPTTR control of plant disease” value was “++ (++ = 75-100% control of plant disease)”. Also, in the assay on Puccinia recondita, the “PUCCRT control of plant disease” value was “++ (++ = 75-100% control of plant disease)”.
Turning to `CNC(=O)C(=NOC)c1ccccc1COc1ncc(C(O)c2ccc(OC(F)(F)F)cc2)cc1Cl` (racemic) [Example 16], the “PHYTIN control of plant disease” value in the assay on Phytophthora infestans is reported as “− (− = 0-24% control of plant disease)”. Besides, in the assay with Erysiphe graminis, the “ERYSGT control of plant disease” value was “++ (++ = 75-100% control of plant disease)”. Besides, the “SEPTTR control of plant disease” value in the assay with Septoria tritici is recorded as “++ (++ = 75-100% control of plant disease)”. For the same molecule, the “PUCCRT control of plant disease” value with Puccinia recondita is recorded as “++ (++ = 75-100% control of plant disease)”.
For `CNC(=O)C(=NOC)c1ccccc1COc1ncc(C2(c3ccccc3)COC(=S)O2)cc1Cl` (centres unmarked) [Example 125], in the assay on Phytophthora infestans, the “PHYTIN control of plant disease” value is given as “++ (++ = 75-100% control of plant disease)”. Moreover, in the assay with Erysiphe graminis, the “ERYSGT control of plant disease” value is listed as “++ (++ = 75-100% control of plant disease)”. Besides, in the assay with Leptosphaeria nodorum, the “LEPTNO control of plant disease” value was “++ (++ = 75-100% control of plant disease)”. In the assay with Puccinia recondita, the “PUCCRT control of plant disease” value is given as “++ (++ = 75-100% control of plant disease)”.
